Results on three compounds are retold here after patent US11160843B2, “Oxytocin and opioid antagonists for treatment of social dysfunction disorder” (YALE UNIVERSITY, priority 2018, dated 2021).

Assay [1] relates to rhesus macaques (Macaca mulatta). Kind of assay: NAL dose-response curve, free-viewing task (fixation frequency to face images). The settings on record: intranasal NAL 0.5, 1, 2 mg via nebulizer, P<0.001 for 1 mg over 2 mg and over 0.5 mg. It counts as in vivo. From the text:
All of the tested subjects received pharmacological manipulations through a pediatric nebulizer (PARI Baby Nebulizer; PARI Respiratory Equipment) with a cone-shaped facemask. The facemask, designed for canine anesthesia, was fitted entirely over the muzzle area, and the subject breathed freely through the nose for the duration of the dose administration. Before experimental sessions, monkeys were first incrementally habituated to the facemask and then to the nebulizer until they were completely relaxed during the procedure, which typically took about 3-5 d. This habituation procedure was performed with saline (SAL). During both the habituation phase and the testing phase, the animals' heads were restrained to minimize movement and enhance administration reliability. Each of the different pharmacology manipulations tested was diluted to a volume of 2 mL using sterile SAL and was administered over the course of 8-10 min. In addition, experimental sessions were conducted at the same time of day to control for diurnal fluctuations. […]
On the day of the experiment, monkeys were transported in a primate chair from the colony room to the experimental room. […] During the 15-s period, monkeys were free to explore, or not explore, each face presented while an infrared eye-tracking camera continuously recorded their eye positions (Eyelink; SR Research). […]

For assay [2] the test system is unchanged. The experiment in a line: Live gaze interaction task (social attention to a conspecific). The settings on record: for attention to the conspecific (looking at the eyes) following mutual eye contact, compared with SAL: 0.5-3 s after mutual eye contact, permutation test, OTNAL P<0.01, OT, NAL both P>0.05. It counts as in vivo. The procedure: Nine adult rhesus macaques (Macaca mulatta) were selected for study. The animals (six males and three females) were all housed together in a colony in either pairs or triads. Each animal was kept on a 12-h light/dark cycle and had access to food 24 h each day with controlled access to water during testing. Before testing began, each monkey received a surgically implanted head post (Crist Instruments, Gray Matter Research) for restraining its head while tracking eye positions. At the time of surgery, anesthesia was induced with ketamine hydrochloride (10 mg/kg i.m.) and maintained with isoflurane (1.0-3.0%, to effect). Aseptic procedures were used, and heart rate, respiration rate, blood pressure, expired CO2, and body temperature were monitored throughout the procedure. Monkeys were allowed an additional 30-40 d of recovery after the implant surgery.
All of the tested subjects received pharmacological manipulations through a pediatric nebulizer (PARI Baby Nebulizer; PARI Respiratory Equipment) with a cone-shaped facemask. The facemask, designed for canine anesthesia, was fitted entirely over the muzzle area, and the subject breathed freely through the nose for the duration of the dose administration. Before experimental sessions, monkeys were first incrementally habituated to the facemask and then to the nebulizer until they were completely relaxed during the procedure, which typically took about 3-5 d. […]
Gaze calibration procedures for studying dyadic gaze interactions reported by Dal Monte, et al., 2016, J. Neurophysiol. […] For analysis purposes, the location was determined where the animal was looking on a theoretical screen located further from the actual screen on which the animal was calibrated. With trigonometric corrections, the ROIs were identified and matched based on individual measurements of each monkey's face to the dimension of fixations as measured from the calibration screen. […]
Two animals sat in front of each other with no task constraints while the eye positions of both animals were recorded simultaneously and continuously (FIG. 1A). […]

In assay [3] the test system is social partners. The settings on record: background statement; cited from earlier work.

For `C=CCN1CC[C@]23c4c5ccc(O)c4O[C@H]2C(=O)CC[C@@]3(O)[C@H]1C5` [NAL, naloxone], the “frequency of fixations to the eyes, normalized by SAL” value in assay [1] was “maximal effect again clearly occurred following the 1-mg dose”. The “frequency of fixations to faces, normalized by SAL” value in assay [1] (inverted U-shaped curve) was “maximal effects clearly occurred following the 1-mg dose”. Moreover, the “attention to the conspecific (looking at the eyes) following mutual eye contact, compared with SAL” value in assay [2] is “neither OT nor NAL administered alone had a significant effect”. Besides, in assay [3], the “solicitation for social contact, such as grooming and proximity” value is “increases solicitation for social contact”.
With `CN1CC[C@]23c4c5ccc(O)c4O[C@H]2[C@@H](O)C=C[C@H]3[C@H]1C5` [morphine], the “physical contact between social partners” value in assay [3] is “decrease physical contact between social partners”.
With `CC[C@H](C)[C@@H]1NC(=O)[C@H](Cc2ccc(O)cc2)NC(=O)[C@@H](N)CSSC[C@@H](C(=O)N2CCC[C@H]2C(=O)N[C@@H](CC(C)C)C(=O)NCC(N)=O)NC(=O)[C@H](CC(N)=O)NC(=O)[C@H](CCC(N)=O)NC1=O` [OT, 1-({(4R,7S,10S,13S,16S,19R)-19-amino-7-(2-amino-2-oxoethyl)-10-(3-amino-3-oxopropyl)-16-(4-hydroxybenzyl)-13-[(1S)-1-methylpropyl]-6,9,12,15,18-pentaoxo-1,2-dithia-5,8,11,14,17-pentaazacycloicosan-4-yl}carbonyl)-L-prolyl-L-leucylglycinamide], the “attention to the conspecific (looking at the eyes) following mutual eye contact, compared with SAL” value in assay [2] was “neither OT nor NAL administered alone had a significant effect”. Moreover, the “frequency of fixations to the eyes of a conspecific, normalized by SAL” value in assay [2] (OT 24 IU, NAL 1 mg, intranasal, P=0.004 OTNAL over SAL, P=0.069 over NAL, P=0.022 over OT, OT over SAL P=0.059 (marginal)) is “overall increased fixations to the eyes compared with SAL”.
